Data from patent US9624206B2, “Antibacterial 1H-indazole and 1H-indole derivatives” (priority 2013, dated 2017).
Values after ≈ are worked out from the molar mass of the structure shown.

Key:
Experiment in all cases: Bacterial growth minimal inhibitory concentration (microdilution, CLSI M7-A7)
Assay type in all cases: cell-based
[1] = tested on: Acinetobacter baumannii T6474; details: Acinetobacter baumannii, T6474; multiply-resistant strain (in particular quinolone-resistant); cation-adjusted Mueller-Hinton Broth
Protocol: (§1) Minimal Inhibitory Concentrations (MICs; mg/L) were determined in cation-adjusted Mueller-Hinton Broth by a microdilution method following the description given in “Methods for Dilution Antimicrobial Susceptibility Tests for Bacteria that Grow Aerobically”, Approved standard, 7th ed., Clinical and Laboratory Standards Institute (CLSI) Document M7-A7, Wayne, Pa., USA (2006).
(§2) All Example compounds were tested against several Gram-positive and Gram-negative bacteria. […] K. pneumoniae A-651 and Acinetobacter baumannii T6474 are multiply-resistant strains (in particular quinolone-resistant), while E. coli ATCC25922 and P. aeruginosa ATCC27853 are quinolone-sensitive strains.

E. coli ATCC25922 = details: Escherichia coli, ATCC25922; quinolone-sensitive strain; cation-adjusted Mueller-Hinton Broth
Protocol: as §1, §2

K. pneumoniae A-651 = details: Klebsiella pneumoniae, A651; multiply-resistant strain (in particular quinolone-resistant); cation-adjusted Mueller-Hinton Broth
Protocol: as §1, §2

P. aeruginosa ATCC27853 = details: Pseudomonas aeruginosa, ATCC27853; quinolone-sensitive strain; cation-adjusted Mueller-Hinton Broth
Protocol: as §1, §2

Row | SMILES | MIC [1] [µg/mL] | MIC (E. coli ATCC25922) [µg/mL] | MIC (K. pneumoniae A-651) [µg/mL] | MIC (P. aeruginosa ATCC27853) [µg/mL]
1 | C[C@@](CCn1ccc2cc(C#CC#C[C@@H]3C[C@H]3CO)c(F)cc21)(C(=O)NO)S(C)(=O)=O (relative stereo) [Example 41, (R)-4-(6-fluoro-5-(((1R*,2R*)-2-(hydroxymethyl)cyclopropyl)buta-1,3-diyn-1-yl)-1H-indol-1-yl)-N-hydroxy-2-methyl-2-(methylsulfonyl)butanamide] | 16 (≈ 35.8 µM) | 0.125 (≈ 0.28 µM) | 0.125 (≈ 0.28 µM) | 1 (≈ 2.24 µM)
2 | COc1ccc(-c2ccc3c(ccn3CC[C@](C)(C(=O)NO)S(C)(=O)=O)c2)c(F)c1 (single isomer, unassigned) [Example 2] | 8 (≈ 18.4 µM) | 0.125 (≈ 0.288 µM) | 2 (≈ 4.6 µM) | 2 (≈ 4.6 µM)
3 | C[C@@](CCn1ccc2cc(C#Cc3ccc(C4(O)COC4)cc3)c(F)cc21)(C(=O)NO)S(C)(=O)=O (single isomer, unassigned) [Example 15] | 0.25 (≈ 0.499 µM) | 0.5 (≈ 0.999 µM) | 0.5 (≈ 0.999 µM) | 1 (≈ 2 µM)
4 | CSc1ccc(-c2ccc3c(cnn3CC[C@](C)(C(=O)NO)S(C)(=O)=O)c2)c(F)c1 [Example 1, (R)-4-(5-(2-fluoro-4-(methylthio)phenyl)-1H-indazol-1-yl)-N-hydroxy-2-methyl-2-(methylsulfonyl)butanamide] | 16 (≈ 35.4 µM) | ≤ 0.063 | 0.25 (≈ 0.554 µM) | 4 (≈ 8.86 µM)
5 | COc1ccc(-c2ccc3c(cnn3CC[C@](C)(C(=O)NO)S(C)(=O)=O)c2)c(F)c1 [Example 3, (R)-4-(5-(2-fluoro-4-methoxyphenyl)-1H-indazol-1-yl)-N-hydroxy-2-methyl-2-(methylsulfonyl)butanamide] | 1 (≈ 2.3 µM) | 0.25 (≈ 0.574 µM) | 1 (≈ 2.3 µM) | 1 (≈ 2.3 µM)
6 | C[C@@](CCn1ncc2cc(C#Cc3ccc(CO)cc3)ccc21)(C(=O)NO)S(C)(=O)=O [Example 4, (R)—N-hydroxy-4-(5-((4-(hydroxymethyl)phenyl)ethynyl)-1H-indazol-1-yl)-2-methyl-2-(methylsulfonyl)butanamide] | 0.125 (≈ 0.283 µM) | 0.125 (≈ 0.283 µM) | ≤ 0.063 | 2 (≈ 4.53 µM)
7 | C[C@@](CCn1ncc2cc(C#CC#CC3(O)COC3)ccc21)(C(=O)NO)S(C)(=O)=O [Example 5, (R)—N-hydroxy-4-(5-((3-hydroxyoxetan-3-yl)buta-1,3-diyn-1-yl)-1H-indazol-1-yl)-2-methyl-2-(methylsulfonyl)butanamide] | > 32 | 1 (≈ 2.32 µM) | 1 (≈ 2.32 µM) | 2 (≈ 4.64 µM)
8 | C[C@@](CCn1ncc2cc(-c3ccc(-n4nccn4)cc3)ccc21)(C(=O)NO)S(C)(=O)=O [Example 6, (R)-4-(5-(4-(2H-1,2,3-triazol-2-yl)phenyl)-1H-indazol-1-yl)-N-hydroxy-2-methyl-2-(methylsulfonyl)butanamide] | 0.125 (≈ 0.275 µM) | ≤ 0.063 | 0.125 (≈ 0.275 µM) | 2 (≈ 4.4 µM)
9 | CC(C)(O)C#CC#Cc1ccc2c(cnn2CC[C@](C)(C(=O)NO)S(C)(=O)=O)c1 [Example 7, (R)—N-hydroxy-4-(5-(5-hydroxy-5-methylhexa-1,3-diyn-1-yl)-1H-indazol-1-yl)-2-methyl-2-(methylsulfonyl)butanamide] | 32 (≈ 76.6 µM) | 0.5 (≈ 1.2 µM) | 1 (≈ 2.4 µM) | 2 (≈ 4.79 µM)
10 | CC(C)(O)c1ccc(C#Cc2ccc3c(cnn3CC[C@](C)(C(=O)NO)S(C)(=O)=O)c2)cc1 [Example 8, (R)—N-hydroxy-4-(5-((4-(2-hydroxypropan-2-yl)phenyl)ethynyl)-1H-indazol-1-yl)-2-methyl-2-(methylsulfonyl)butanamide] | 0.25 (≈ 0.532 µM) | 0.125 (≈ 0.266 µM) | 0.25 (≈ 0.532 µM) | 2 (≈ 4.26 µM)
11 | C[C@@](CCn1ccc2cc(C#Cc3ccc(CO)cc3)ccc21)(C(=O)NO)S(C)(=O)=O [Example 9, (R)—N-hydroxy-4-(5-((4-(hydroxymethyl)phenyl)ethynyl)-1H-indol-1-yl)-2-methyl-2-(methylsulfonyl)butanamide] | 0.125 (≈ 0.284 µM) | ≤ 0.063 | 0.125 (≈ 0.284 µM) | 1 (≈ 2.27 µM)
12 | C[C@@](CCn1ccc2cc(C#Cc3ccc(C4(O)COC4)cc3)ccc21)(C(=O)NO)S(C)(=O)=O [Example 10, (R)—N-hydroxy-4-(5-((4-(3-hydroxyoxetan-3-yl)phenyl)ethynyl)-1H-indol-1-yl)-2-methyl-2-(methylsulfonyl)butanamide] | 0.125 (≈ 0.259 µM) | 0.125 (≈ 0.259 µM) | 0.25 (≈ 0.518 µM) | 1 (≈ 2.07 µM)

Continued, values first:

Row | MIC [1] [µg/mL] | MIC (E. coli ATCC25922) [µg/mL] | MIC (K. pneumoniae A-651) [µg/mL] | MIC (P. aeruginosa ATCC27853) [µg/mL] | SMILES
13 | 16 (≈ 42.3 µM) | 8 (≈ 21.1 µM) | 16 (≈ 42.3 µM) | 16 (≈ 42.3 µM) | CC#CCOc1ccc2c(ccn2CCC(C)(C(=O)NO)S(C)(=O)=O)c1 (racemic) [RE1, (RS)-4-(5-(but-2-yn-1-yloxy)-1H-indol-1-yl)-N-hydroxy-2-methyl-2-(methylsulfonyl)butanamide]
14 | 32 (≈ 73.5 µM) | 8 (≈ 18.4 µM) | 16 (≈ 36.7 µM) | 16 (≈ 36.7 µM) | COc1cccc(-c2ccc3c(cnn3CCC(C)(C(=O)NO)S(C)(=O)=O)c2)c1F (racemic) [RE2, (RS)-4-(5-(2-fluoro-3-methoxyphenyl)-1H-indazol-1-yl)-N-hydroxy-2-methyl-2-(methylsulfonyl)butanamide]
15 | 0.25 (≈ 0.605 µM) | 0.25 (≈ 0.605 µM) | 1 (≈ 2.42 µM) | 16 (≈ 38.7 µM) | CC(CCn1ncc2cc(/C=C/c3ccccc3)ccc21)(C(=O)NO)S(C)(=O)=O (racemic) [RE3, (RS)-(E)-N-hydroxy-2-methyl-2-(methylsulfonyl)-4-(5-styryl-1H-indazol-1-yl)butanamide]
16 | 8 (≈ 19.3 µM) | 2 (≈ 4.81 µM) | 0.5 (≈ 1.2 µM) | 8 (≈ 19.3 µM) | CC(CCn1ncc2cc(CCc3ccccc3)ccc21)(C(=O)NO)S(C)(=O)=O (racemic) [RE4, (RS)—N-hydroxy-2-methyl-2-(methylsulfonyl)-4-(5-phenethyl-1H-indazol-1-yl)butanamide]
17 | 32 | 0.5 | 0.5 | 16 | CC(CCn1ncc2cc(C#Cc3ccc(CN4CCOCC4)cc3)ccc21)(C(=O)NO)S(C)(=O)=O.Cc1ccc(S(=O)(=O)O)cc1 (racemic) [RE5, (RS)—N-hydroxy-2-methyl-2-(methylsulfonyl)-4-(5-((4-(morpholinomethyl)phenyl)ethynyl)-1H-indazol-1-yl)butanamide 4-toluenesulfonic acid salt]
18 | 1 (≈ 2.34 µM) | 0.25 (≈ 0.586 µM) | 0.5 (≈ 1.17 µM) | 8 (≈ 18.8 µM) | CC(CCn1ncc2cc(C#Cc3ccc(N)cc3)ccc21)(C(=O)NO)S(C)(=O)=O (racemic) [RE6, (RS)-4-(5-((4-aminophenyl)ethynyl)-1H-indazol-1-yl)-N-hydroxy-2-methyl-2-(methylsulfonyl)butanamide]
19 | 8 (≈ 17 µM) | 4 (≈ 8.48 µM) | 1 (≈ 2.12 µM) | 8 (≈ 17 µM) | CC(CCn1ncc2cc(-c3ccc(OC(F)(F)F)cc3)ccc21)(C(=O)NO)S(C)(=O)=O (racemic) [RE7, (RS)—N-hydroxy-2-methyl-2-(methylsulfonyl)-4-(5-(4-(trifluoromethoxy)phenyl)-1H-indazol-1-yl)butanamide]
20 | 0.5 | 0.25 | ≤ 0.063 | 8 | CC(CCn1ccc2cc(-c3ccc(-n4nccn4)cc3)ccc21)(C(=O)NO)S(C)(=O)=O.O=CO (racemic) [RE8, (RS)-4-(5-(4-(2H-1,2,3-triazol-2-yl)phenyl)-1H-indol-1-yl)-N-hydroxy-2-methyl-2-(methylsulfonyl)butanamide formate]
21 | 2 (≈ 4.25 µM) | 4 (≈ 8.5 µM) | 2 (≈ 4.25 µM) | 8 (≈ 17 µM) | CC(CCn1ccc2cc(-c3ccc(OC(F)(F)F)cc3)ccc21)(C(=O)NO)S(C)(=O)=O (racemic) [RE9, (RS)—N-hydroxy-2-methyl-2-(methylsulfonyl)-4-(5-(4-(trifluoromethoxy)phenyl)-1H-indol-1-yl)butanamide]
22 | 4 (≈ 8.88 µM) | 2 (≈ 4.44 µM) | 0.5 (≈ 1.11 µM) | 8 (≈ 17.8 µM) | CSc1ccc(-c2ccc3c(ccn3CCC(C)(C(=O)NO)S(C)(=O)=O)c2)c(F)c1 (racemic) [RE10, (RS)-4-(5-(2-fluoro-4-(methylthio)phenyl)-1H-indol-1-yl)-N-hydroxy-2-methyl-2-(methylsulfonyl)butanamide]
23 | 4 (≈ 8.84 µM) | 1 (≈ 2.21 µM) | 2 (≈ 4.42 µM) | 8 (≈ 17.7 µM) | COc1ccc(-c2cc3ccn(CCC(C)(C(=O)NO)S(C)(=O)=O)c3cc2F)c(F)c1 (racemic) [RE11, (RS)-4-(6-fluoro-5-(2-fluoro-4-methoxyphenyl)-1H-indol-1-yl)-N-hydroxy-2-methyl-2-(methylsulfonyl)butanamide]
24 | 2 (≈ 4.42 µM) | 2 (≈ 4.42 µM) | 4 (≈ 8.84 µM) | 2 (≈ 4.42 µM) | COc1ccc(-c2ccc3c(ccn3CCC(C)(C(=O)NO)S(C)(=O)=O)c2F)c(F)c1 (racemic) [RE12, (RS)-4-(4-fluoro-5-(2-fluoro-4-methoxyphenyl)-1H-indol-1-yl)-N-hydroxy-2-methyl-2-(methylsulfonyl)butanamide]
25 | 4 (≈ 7.99 µM) | 0.25 (≈ 0.499 µM) | 0.5 (≈ 0.999 µM) | 2 (≈ 4 µM) | CC(CCn1ccc2c(F)c(C#Cc3ccc(C4(O)COC4)cc3)ccc21)(C(=O)NO)S(C)(=O)=O (racemic) [RE13, (RS)-4-(4-fluoro-5-((4-(3-hydroxyoxetan-3-yl)phenyl)ethynyl)-1H-indol-1-yl)-N-hydroxy-2-methyl-2-(methylsulfonyl)butanamide]
